Literature values, collected in patent US20180214382A1, “EDIBLE COMPOSITION COMPRISING A POLYSACCHARIDE AND A LIPID” (PERORA GMBH, priority 2015, published 2018).

Settings: rat feeding study; independent from intake

- true digestibility of stearic acid from tristearin: 0.15 g/g
SMILES: CCCCCCCCCCCCCCCCCC(=O)OCC(COC(=O)CCCCCCCCCCCCCCCCC)OC(=O)CCCCCCCCCCCCCCCCC [tristearin]
